Assay results from US20240299486A1, “ADDRESSING INJECTION SITE REACTIONS ASSOCIATED WITH THE ADMINISTRATION OF ELAMIPRETIDE” (STEALTH BIOTHERAPEUTICS INC., priority 2022, published 2024).

How the values were obtained:
rats = conditions: subcutaneous administration, long term toxicology studies
healthy subjects = test: Phase 1 crossover study: self-assessed injection site reactions; type: in vivo, human; conditions: 60 mg SQ elamipretide with or without the intervention, across all timepoints, all participants, n = 80
Description: • This Phase 1, open-label, 6-arm crossover study included 10 healthy subjects ≥18 and ≤65 years of age. • All subjects received 60 mg of SQ elamipretide to alternating quadrants of the abdomen on each of 6 occasions (FIG. 3), with or without the interventions listed in Table 2. • For each treatment arm, ISR clinical and self-assessments were performed pre-elamipretide administration and at 0.5, 1, 2, 4, 6, 12, 24, and 48 hours after each elamipretide dose. • Blood samples for plasma concentrations of elamipretide and its metabolites were also collected pre-dose and at 0.25, 0.5, 1, 2, 4, and 6 hours post-elamipretide dose. • Primary endpoints consisted of comparisons of the grading from the clinical assessments and the self-assessments of each ISR parameter following administration of elamipretide with each separate intervention versus that of elamipretide alone. • Secondary endpoints consisted of comparison of various pharmacokinetic (PK) parameters and adverse events following administration of elamipretide with each separate intervention versus that of elamipretide alone.
After the screening period (up to 28 days) in this phase 1, open-label, 4-week, 6-part, crossover study, all eligible subjects received 60 mg (0.75 mL) of SC elamipretide to alternating quadrants of the abdomen on each of 6 occasions, with or without potential ISR interventions. The first treatment arm (Arm 1) commenced on Day 1 with administration of elamipretide only, followed by the remaining treatment arms (Arms 2-6) with the following potential mitigations: mometasone furoate, 0.1% ointment, applied once under a hydrocolloid occlusive dressing (DuoDERM Extra Thin) 7 days prior to elamipretide administration (Arm 2); ice application at the elamipretide injection site 5 minutes pre- and post-drug administration (Arm 3); tacrolimus 0.1% ointment applied 15 minutes pre-drug dosing (Arm 4); doxepin 5% cream applied 15 minutes pre-elamipretide administration (Arm 5); and diphenhydramine 50 mg orally taken 2 hours prior to administration (Arm 6). For each treatment arm, blood samples for plasma concentrations of elamipretide and its metabolites were collected pre-dose and at 0.25, 0.5, 1, 2, 4, and 6 hours post-elamipretide dose. Vital signs were recorded pre-dose and at 0.5 and 6 hours post-elamipretide administration. ISR clinical and self-assessments were performed pre-elamipretide administration and at 0.5, 1, 2, 4, 6, 12, 24, and 48 hours after each elamipretide dose. Injection sites were photographed at 0.5, 1, 2, 4, and 12 hours post-elamipretide dose.
The primary endpoints of this study were comprised of the following efficacy measures: clinical assessments and subject self-assessments. Specifically, the primary endpoints consisted of comparisons of the grading of each ISR parameter following administration of elamipretide with each separate intervention versus the grading of each ISR parameter following administration of elamipretide alone. For clinical assessments, the clinical staff used a standard procedure adapted from the Division of Aids Table for Grading the Severity of Adult and Pediatric Adverse Events to score pain, erythema, induration, and pruritus using a 4-point scale based on severity (0=None, 1=Mild, 2=Moderate, 3=Severe, 4=Potentially Life Threatening). The self-assessments were based on a questionnaire to determine how bothered the patient was following each injection of elamipretide and included the following parameters: pain, burning sensation, cold sensation, itching, redness, swelling, and bruising.
All statistical analyses were performed using SAS GRID Linux/SAS Studio (Version 9.4, or higher). PK parameters for elamipretide and its metabolites, M1 and M2, were summarized using descriptive statistics.

[1] = test system: wild type and Mrgprb2 knockout mice
Description: Adult mice up to 8 months of age were anesthetized with an intraperitoneal injection of ketamine/xylazine. Fifteen (15) minutes after induction of anesthesia, mice were injected intravenously with 50 μL of 12.5 mg/mL Evans Blue in saline. Five (5) minutes later, 5 μL of 0.5 mg/mL elamipretide (in saline) was administered by injection in one paw and saline was administered in the other paw. Fifteen (15) minutes later, mice were sacrificed by decapitation. Paw tissue was collected, dried for 24 hours at 50° C., and weighed. Evans Blue was extracted by a 24-hour incubation in formamide at 50° C., and the optical density (O.D.) was read at 600 nm (the maximum Evans Blue absorbance) and 740 nm (the minimum specific Evans Blue absorbance) using a spectrophotometer. The value at 740 nm, reflecting Evans Blue-independent O.D., was subtracted from the value at 600 nm to attain the final readout.
Injection site reactions were characterized by local inflammation and edema. The standard assay in mice to monitor local skin inflammation is the Evans Blue assay. In conditions of local skin inflammation, blood vessels become more permeable and components of blood leak out into the local tissue. Evans Blue is a dye that binds to a protein called albumin in the blood and leaks out with the albumin in inflammatory conditions. In this assay, mice were injected intravenously with Evans Blue and the amount of Evans Blue leakage in a tissue was a readout of the extent of inflammation. […] This is preferable to other skin sites in mice, as they are extremely thin, compared to human skin, and injected fluids almost immediately leave the sites of injection.

[2] = SQ elamipretide, multiple-dose trials >8 days, n = 376

Cc1cc(O)cc(C)c1C[C@H](NC(=O)[C@H](N)CCCNC(=N)N)C(=O)N[C@@H](CCCCN)C(=O)N[C@@H](Cc1ccccc1)C(N)=O (stereo in doubt) [Elamipretide, H-D-Arg-2′,6′Dmt-Lys-Phe-NH2]
Injection site bruising, (%) of Subjects (subjects; [2]): (12.0) % | Injection site bruising, Number of Subjects (subjects; [2]): 45 | Injection site erythema, (%) of Subjects (subjects; [2]): (47.3) % | Injection site erythema, Number of Subjects (subjects; [2]): 178 | Injection site haemorrhage, (%) of Subjects (subjects; [2]): (5.9) % | Injection site haemorrhage, Number of Subjects (subjects; [2]): 22 | Injection site induration, (%) of Subjects (subjects; [2]): (19.4) % | Injection site induration, Number of Subjects (subjects; [2]): 73 | Injection site mass, (%) of Subjects (subjects; [2]): (5.6) % | Injection site mass, Number of Subjects (subjects; [2]): 21 | Injection site pain, (%) of Subjects (subjects; [2]): (22.3) % | Injection site pain, Number of Subjects (subjects; [2]): 84 | Injection site pruritus, (%) of Subjects (subjects; [2]): (44.7) % | Injection site pruritus, Number of Subjects (subjects; [2]): 168 | Injection site swelling, (%) of Subjects (subjects; [2]): (13.8) % | Injection site swelling, Number of Subjects (subjects; [2]): 52 | Injection site urticaria, (%) of Subjects (subjects; [2]): (12.5) % | Injection site urticaria, Number of Subjects (subjects; [2]): 47 | injection site reactions (ISRs) reported, % of subjects (subjects; subjects receiving SQ elamipretide through clinical trials): 84.4% | injection site reactions (rats): some being severe at the higher dose levels | Self-assessed Bruising, (%) of Reported Reactions (healthy subjects): (6.3) % | Self-assessed Bruising, Number of Reported Reactions (healthy subjects): 5 | Self-assessed Burning sensation, (%) of Reported Reactions (healthy subjects): (16.3) % | Self-assessed Burning sensation, Number of Reported Reactions (healthy subjects): 13 | Self-assessed Cold Sensation, Number of Reported Reactions (healthy subjects): 0.0 | Self-assessed Itching, (%) of Reported Reactions (healthy subjects): (20.0) % | Self-assessed Itching, Number of Reported Reactions (healthy subjects): 16 | Self-assessed Pain, (%) of Reported Reactions (healthy subjects): (13.8) % | Self-assessed Pain, Number of Reported Reactions (healthy subjects): 11 | Self-assessed Redness, (%) of Reported Reactions (healthy subjects): (30.0) % | Self-assessed Redness, Number of Reported Reactions (healthy subjects): 24 | Self-assessed Swelling, (%) of Reported Reactions (healthy subjects): (22.5) % | Self-assessed Swelling, Number of Reported Reactions (healthy subjects): 18 | reduction of Evans Blue accumulation in footpads in Mrgprb2 knockout mice ([1]; 0.5 mg/mL elamipretide, knockout vs wild type): 80% | Evans Blue accumulation in footpads ([1]; Mrgprb2 knockout mice, 0.5 mg/mL elamipretide): almost no Evans Blue accumulation | Evans Blue labeling in footpads ([1]; wild type mice, 5 μL of 0.5 mg/mL elamipretide injected in paw, vs saline): strong Evans Blue labeling
